For data set [1], the system named is rabbit corporal smooth muscle (CSM) strip. As to the kind of experiment: Organ bath relaxation of phenylephrine-pre-contracted rabbit corpus cavernosal strips. On the set-up: species or system New Zealand white rabbits. The conditions noted are these: for relaxation, % of the phenylephrine (PE)-induced contraction: concentration-response; for % relaxation of the phenylephrine-induced contraction: synergy experiment. From the text: Sexually mature male New Zealand white rabbits (3.0±0.3 kg) were killed with an air embolism in the ear vein. The entire penis was then surgically excised, and then cleaned by removing the […] and urethra. Then, the corporal tissue was carefully dissected from the surrounding tunica. Four corpus cavernosal strips with approximately equal sizes (2×2×10 mm) were obtained from each penis.
Rabbit corpus cavernosal strips were separately prepared for organ-bath studies. Each corporal strip was mounted in a 10 ml-organ chamber filled with Krebs buffer (composition in mmol/l: 118.4 NaCl, 4.7 KCl, 2.5 CaCl2, 1.2 KH2PO4, 1.2 MgSO4, 24.9 NaHCO3, and 11.1 D-glucose), with one end fixed to a tissue holder and the other secured to a force transducer. The force transducer was connected to an appropriately calibrated four-channel polygraph (Power-Lab; AD Instruments, Sydney, NSW, Australia), in which the transducer output was recorded. The corpus cavernosal strips were kept in the organ bath with Krebs solution maintained at 36.5° C. by a thermo-regulated water circuit and by continuously bubbling with a mixture of 95% O2 and 5% CO2. Each corporal strip was stretched to an optimal isometric tension of 1.0 g and was equilibrated for 60 min. During the equilibration, the tissues were washed with fresh Krebs solution every 15 min, and the tension was adjusted if necessary.
The vasodilatory effect of LDD175 was studied by cumulative addition of the sample at concentrations ranging from 10^−7 to 10^−4 M to endothelium-intact strips and endothelium-denuded strips after pre-contraction with 10^−5 M phenylephrine (PE). The endothelial lining of the corpus cavernosum was removed by rubbing the strip between the thumb and index finger for 20 seconds and soaking the same in 0.3% solution of 3[(3-cholamidopropyl)-dimethylammonio]-l-propanesulphonate (CHAPS) for 10 seconds. It was confirmed whether the endothelium was functionally completely removed for all strips by pre-contracting the strips with 10^−5 M […] PE and then adding acetylcholine (10^−6 M) thereto. […] After the addition of IbTX, LDD175 was added to strips pre-contracted with PE. The relaxation effect of the PDE5 inhibitor (udenafil, 10^−6 and 10^−5 M) was also separately measured in the same manner, and compared to that of LDD175. The synergistic relaxation effect between 10^−5 M LDD175 and 10^−6 M udenafil was also investigated.

Data set [2] has as its target T1, BKCa channel (Homo sapiens, UniProt Q12791).
T1 construct: Homogeneous explant cell cultures of human corporal smooth muscle (CSM) cells were prepared; endogenous in cells; host or cells: primary explant cultures of human corporal smooth muscle (CSM) cells from erectile dysfunction patients
The data set is described as follows: Whole-cell patch-clamp recording of BKCa currents in cultured human CSM cells. The class given is cell-based. To be noted: for activation of outward rectifying K+ currents (whole-cell), increase vs. control: at +60 mV. How it is done:
Human corporal tissues were obtained from the corpus cavernosa of patients with organic erectile dysfunction undergoing implantation of penile prostheses. Homogeneous explant cell cultures of human corporal smooth muscle (CSM) cells were prepared as follows (Palmer et al., 1994; Sung et al., 2011). Radial sections of approximately 3×3×10 mm were excised from the mid-penile shafts of the respective resected sample. These samples were tissues including smooth muscles, endothelium, and connective tissues, with occasional nerve fibers. The tissues were washed, cut into 1-2 mm pieces, and placed in tissue culture dishes filled with Dulbecco's modified Eagle's medium (DMEM, Gibco, Carlsbad, Calif., USA) supplemented with 10% fetal bovine serum and antibiotics (100 units/mL penicillin, streptomycin; Gibco), under 5% O2 and 5% CO2. After the explants were attached to the substrate (usually 1-2 days), additional medium was added. The smooth muscle cells were observed migrating from the explants, and underwent division. The cells were subsequently detached via a trypsin/EDTA protocol to establish secondary cultures from the explants. These cultures were morphologically homogeneous. The cobblestone morphology, which is the characteristic of endothelial cells, and the flattened and spread-out shape, which is the characteristic of fibroblasts, were not observed. Cellular homogeneity was further verified by observing smooth muscle-specific α-actin and myosin immuno-responsiveness. While the cultures were maintained for four or more passages, all measured pharmacological and molecular properties were evaluated in the intact tissues that were maintained in the cultures, for example, cyclic adenosine monophosphate formation (Palmer et al., 1994), calcium mobilization (Zhao and Christ, 1995), expression or function of the gap junction protein, connexin (Brink et al., 1996), and K+ channel activity (Lee et al., 1999).
The Ca^2+-activated potassium channel (BKCa) was measured by using the conventional whole-cell patch-clamp technique (Sung et al., 2011). Patch electrodes were made from borosilicate glass capillary tubing (World Precision Instruments, Sarasota, Fla., USA), and had 2.5-5 MO resistance. The cell suspension was placed into a small chamber (0.6 ml) on the stage of an inverted microscope (TMD Diaphot, Nikon, Tokyo, Japan). The membrane currents in smooth muscle cells were recorded using a patch clamp amplifier (Axopatch-1 D, Axon Instruments, Foster City, Calif., USA). The liquid junction potential between the pipette solution and the bath solution was only about 3 mV, and thus uncorrected. In each experiment, whole-cell configuration was not achieved until the seal resistance became larger than 5 GO. The pCLAMP software (Axon Instruments) and Digidata-1322A (Axon Instruments) were used for data acquisition and application of command pulses. Membrane currents were measured during ramping, and filtered at 5 kHz (−3 dB frequency). The current signals were filtered at 5 kHz, digitized, and analyzed on a personal computer using pCLAMP and Origin software (Microcal Software, Northampton, Mass., USA). The standard bath solution was prepared to contain 135 mmol NaCl, 5 mmol KCl, 10 mmol HEPES, 1.8 mmol CaCl2, 1 mmol MgCl2, and 5 mmol glucose, per liter, at pH 7.4 adjusted with NaOH. The pipette (internal) solution was prepared to contain, per liter, 140 mmol KCl, 10 mmol HEPES, 5 mmol K2ATP, 2 mmol MgCl2, 5 mmol ethyleneglycol-bis-[2-aminoethyl ether]-N,N′-tetraacetic acid (EGTA), and 0.5 mmol GTP, at pH 7.2 adjusted with KOH. The Ca^2+-free concentration in the pipette solution was adjusted to 3.15 nM by adding an appropriate amount of CaCl2, determined using the Max Chelator Sliders software (C. Patton, Stanford University).

Data set [3] deals with erectile function of rats. The data set is described as follows: In vivo cavernous nerve stimulation model, erectile response. Also on record: species or system Sprague-Dawley rats. How it is done: (§1) The erectile response was measured using Sprague-Dawley rats. The detailed methodology of measuring the erectile response has been described previously (Rehman et al., 1997). The 8-10 wk aged rats were anesthetized with intramuscular injection of Zoletil 100 mg/kg (Virbac, Carros, France), and placed on a thermally regulated surgical table. Systemic arterial blood pressure (ABP) was monitored via carotid artery cannulation (polyethylene-50 tubing). The prostate and bladder were exposed through a midline abdominal incision. The major pelvic ganglion, pelvic nerves, and cavernous nerve were identified as posterolateral to the prostate on each side. An electric stimulator with stainless steel bipolar hook electrodes was placed around the cavernous nerve for electrical stimulation. To monitor intracavernosal pressure (ICP), a 25-gauge cannula was filled with […], connected to polyethylene-50 tubing, and inserted into one side of the crura. Systemic arterial blood pressure (ABP) and intracavernosal pressure (ICP) were measured with a transducer connected to a PowerLab® (AD Instruments, Colorado Spring, Colo., USA), which is a computerized system for data acquisition. Real-time display and documentation of pressure were conducted with Chart™ 6 software. Sub-maximal electrical field stimulation (EFS) was used with 1 V, 2 Hz, 5 ms pulse width, and duration of 60 seconds. Sub-maximal electrical field stimulation was applied 10 min after a series of control (buffer solution alone), LDD175 (10 mg/kg), and udenafil (1 mg/kg) injections. At the end of sub-maximal stimulation, the full response was measured using the EFS of 6 V, 10 Hz, 5 ms pulse width, with duration of 60 seconds. Buffer solution, LDD175, and udenafil were administered at intervals of 30 min. The ratio of maximal ICP to mean arterial BP at the peak of the erectile response was calculated in order to control for variations in ABP.

Data set [4] relates to rat model with diabetic erectile dysfunction. As to the kind of experiment: Diabetic erectile dysfunction rat model (streptozotocin), intracavernosal pressure. To be noted: for maximal ICP/ABP ratio: 5 V. The class given is in vivo, Sprague-Dawley rats. How it is done:
as §1
The 8-wk aged male Sprague-Dawley rats were administered with an intraperitoneal injection of streptozotocin (65 mg/kg body weight) dissolved in 5 mM citric acid buffer (pH 4.5), thereby inducing insulin dependent diabetes mellitus (IDDM). Rats of the normal control were injected with only 5 mM citric acid buffer (pH 4.5) by the same method. On day 2 of breeding, the rats were fasted for 16 hours, and the blood was collected from the tail vein to conduct the blood glucose test. Only rats with a blood glucose level of 250 mg/de or higher were selected for a diabetes induced group.

Data set [5] concerns BP and heart rate. To be noted: cited from earlier work.
Data set [6] concerns aortic rings of rats. To be noted: cited from earlier work.
Setting [7] is: sub-maximal EFS, intravenous LDD175 10 mg/kg, n=8.

Values joined by “and” are separate entries in the source; they are usually repeats but may differ in a detail not shown here. Equal entries are not always repeated. Where two headings read alike, the source gives them in different places.

T1 sequence (Q12791 whole entry): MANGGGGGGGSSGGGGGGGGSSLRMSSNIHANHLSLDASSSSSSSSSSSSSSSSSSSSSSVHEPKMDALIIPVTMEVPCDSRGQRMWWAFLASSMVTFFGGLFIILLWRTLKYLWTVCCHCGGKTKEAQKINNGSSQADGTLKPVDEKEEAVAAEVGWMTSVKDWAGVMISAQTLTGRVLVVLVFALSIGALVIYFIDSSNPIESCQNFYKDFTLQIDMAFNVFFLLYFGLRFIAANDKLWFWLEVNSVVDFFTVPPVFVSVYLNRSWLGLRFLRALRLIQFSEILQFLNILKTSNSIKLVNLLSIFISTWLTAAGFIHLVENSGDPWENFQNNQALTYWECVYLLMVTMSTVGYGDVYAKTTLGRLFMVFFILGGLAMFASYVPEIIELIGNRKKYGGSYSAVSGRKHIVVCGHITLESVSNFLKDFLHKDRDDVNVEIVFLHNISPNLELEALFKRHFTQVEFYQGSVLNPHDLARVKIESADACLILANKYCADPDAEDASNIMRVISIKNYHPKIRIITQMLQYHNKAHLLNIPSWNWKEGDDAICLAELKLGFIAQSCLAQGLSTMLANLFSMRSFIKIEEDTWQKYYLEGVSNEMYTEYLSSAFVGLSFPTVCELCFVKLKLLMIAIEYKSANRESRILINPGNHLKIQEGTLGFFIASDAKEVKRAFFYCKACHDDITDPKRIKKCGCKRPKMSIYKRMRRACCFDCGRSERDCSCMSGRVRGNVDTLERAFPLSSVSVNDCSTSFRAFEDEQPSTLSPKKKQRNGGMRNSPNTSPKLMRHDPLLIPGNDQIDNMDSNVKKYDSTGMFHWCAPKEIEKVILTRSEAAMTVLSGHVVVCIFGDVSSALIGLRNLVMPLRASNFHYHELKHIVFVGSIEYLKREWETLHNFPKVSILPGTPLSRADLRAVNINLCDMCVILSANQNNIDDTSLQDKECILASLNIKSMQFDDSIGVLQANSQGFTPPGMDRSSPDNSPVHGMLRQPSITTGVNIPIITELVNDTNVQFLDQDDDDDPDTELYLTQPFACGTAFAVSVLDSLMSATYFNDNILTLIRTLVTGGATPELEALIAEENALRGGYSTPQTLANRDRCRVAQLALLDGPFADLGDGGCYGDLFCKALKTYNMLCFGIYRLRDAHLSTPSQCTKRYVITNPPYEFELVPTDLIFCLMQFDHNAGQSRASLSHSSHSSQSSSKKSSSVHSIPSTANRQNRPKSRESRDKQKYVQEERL

For the compound `O=C(O)c1ccc(Cl)c2c1[nH]c1c3ccc(C(F)(F)F)cc3oc12` [LDD175, 4-chloro-7-trifluoromethyl-10H-benzo[4,5]furo[3,2-b]indole-1-carboxylic acid], the relaxation response is recorded as 41.0±4.9% in data set [1] (10^−4 M LDD175, denuded endothelium, n=10) and 45.9±6.2% in data set [1] (10^−4 M LDD175, intact endothelium, n=7). The “relaxation response after IbTX pretreatment” value in data set [1] (10^−4 M LDD175, strips pre-treated with 100 nM IbTX for 30 minutes, n=7) is recorded as 23.6±3.3%. Besides, the “relaxation, % of the phenylephrine (PE)-induced contraction” value in data set [1] (10^−4 M) was 54.0±3.0% and 54.0±3.1%; in data set [1] (10^−5 M), 26.3±2.0%; in data set [1] (10^−6 M), 14.5±2.6%; in data set [1] (10^−7 M), 3.7±1.4%. For the same compound, the “% relaxation of the phenylephrine-induced contraction” value in data set [1] (10^−5 M alone, n=7) is given as 32.7±3.8%. Further, the peak current density was 30.9±6.5 pA/pF in data set [2] (0.1 μM, +60 mV, n=10); 45.1±8.2 pA/pF in data set [2] (1 μM, +60 mV, n=10); 178.5±30.0 pA/pF in data set [2] (10 μM, +60 mV, n=10); 257.3±48.3 pA/pF in data set [2] (30 μM, +60 mV, n=10); 23.9±5.8 pA/pF in data set [2] (30 μM, −40 mV); 265.5±53.4 pA/pF in data set [2] (100 μM, +60 mV, n=10). Also, in data set [2] (30 μM), the “activation of outward rectifying K+ currents (whole-cell), increase vs. control” value is 952.1%. In data set [2] (30 μM, −40 mV), the “peak current density, fold vs. control” value was 42.8 fold. Also, the “BP fluctuation and hemodynamical instability” value in data set [3] (during in vivo cavernous nerve stimulation) is reported as “not observed”. Moreover, the “area under curve (AUC) of ICP/ABP ratio” value in data set [3] (setting [7]) was 1444.4±133.3. The “maximal ICP” value in data set [3] (setting [7]) turned out to be 57.8±6.6 mmHg. Besides, the “maximal ICP/ABP ratio” value in data set [3] (setting [7]) turned out to be 45.3±5.8%. Also, in data set [4] (LDD175 5 mg/kg and 10 mg/kg injection groups, 10 mg/kg more effective than 5 mg/kg), the intracavernosal pressure entry is “significantly increased”. Also, the “effect of LDD175 on intracavernosal pressure after BKCa channel inhibitor” value in data set [4] (TEA 30 mg/kg injected, after 10 minutes LDD175 10 mg/kg) is “completely inhibited”. Moreover, the “BP and heart rate changes following intravenous administration” value in data set [5] (10 mg/kg LDD175, intravenous) was “did not cause significant changes”. Also, the “adverse cardiovascular effects in in vivo animal experiments” value in data set [5] (rat, in vivo) was “no significant adverse cardiovascular effects”. Moreover, the “relaxation of aortic rings” value in data set [6] is reported as “not relaxed”.

For the compound `O=c1[nH]c2cc(C(F)(F)F)ccc2n1-c1cc(C(F)(F)F)ccc1O` [NS1619, reference compound], the “activation of outward rectifying K+ currents (whole-cell), increase vs. control” value in data set [2] (30 μM) was 880.0%. For the same compound, in data set [2] (30 μM, −40 mV), the peak current density came out at 1.5±0.6 pA/pF and the “peak current density, fold vs. control” value was 1.3 fold.

As to `CC[N+](CC)(CC)CC` [TEA, tetraethylammonium, reference compound], the “suppression of LDD175-activated K+ currents” value in data set [2] was found to be 78.2%.

In the case of `CCCc1nn(C)c2c(=O)[nH]c(-c3cc(S(=O)(=O)N4CCN(C)CC4)ccc3OCC)nc12` [sildenafil], the “maximal ICP/ABP ratio” value was found to be 55.4±5.2 in data set [4] (1 mg/kg, n=6) and 69.9±5.4 in data set [4] (5 mg/kg, n=7).

For `CCCOc1ccc(S(=O)(=O)NCCC2CCCN2C)cc1-c1nc2c(CCC)nn(C)c2c(=O)[nH]1` (stereo not drawn) [udenafil, reference compound], the figures for the “relaxation, % of the phenylephrine (PE)-induced contraction” value in data set [1] (10^−5 M) and in data set [1] (10^−6 M) were 67.1±1.7% and 34.5±3.9%, respectively. Further, in data set [1] (10^−6 M alone, n=7), the “% relaxation of the phenylephrine-induced contraction” value was 21.6±2.7%. In data set [3] (1 mg/kg udenafil, sub-maximal EFS), the “effect on maximal ICP, maximal ICP/ABP ratio and AUC of ICP/ABP ratio compared with 10 mg/kg LDD175” value is “no difference”.

“iberiotoxin (QFTDVDCSVSKECWSVCKDLFGVDRGKCMGKKCRCYQ; UniProt P24663 1-37, looked up) [IbTX, reference compound]”: the “suppression of LDD175-activated K+ currents” value in data set [2] (100 nM IbTX, n=4) is 78.1%.

These data come from patent publication US20160235710A1, “COMPOSITION FOR TREATING OR PREVENTING ERECTILE DYSFUNCTION COMPRISING LDD175 AS ACTIVE INGREDIENT” (ANYGEN, INC., priority 2015, published 2016).
